Measured values from PMC2732577 (Biochemistry, 2008).
“Also recorded” adds a separate entry of the source. Ends that are not written are not given here.

Columns and labels:
Type in all cases: biochemical
[1] = target: T1, Pf-Sir2 (Plasmodium falciparum, UniProt Q8IE47)
T1 sequence (Q8IE47 1-273): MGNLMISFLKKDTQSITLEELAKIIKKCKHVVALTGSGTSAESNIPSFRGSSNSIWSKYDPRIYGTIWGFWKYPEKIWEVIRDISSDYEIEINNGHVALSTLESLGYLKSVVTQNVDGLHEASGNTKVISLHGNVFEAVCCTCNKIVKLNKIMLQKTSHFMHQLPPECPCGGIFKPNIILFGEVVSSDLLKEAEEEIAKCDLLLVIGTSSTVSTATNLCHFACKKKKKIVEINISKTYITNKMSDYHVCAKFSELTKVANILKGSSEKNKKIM

[2] = target: T1, Pf-Sir2; remark: listed apart in the source
[3] = target: T1, Pf-Sir2; remark: listed apart in the source
[4] = target: T1, Pf-Sir2; assay: Thionicotinamide base-exchange assay; conditions: similar reaction conditions, H3 substrate
[5] = target: T1, Pf-Sir2; assay: Decomposition of AADPR in presence of Pf-Sir2; conditions: data not shown

## NC(=O)c1ccc[n+]([C@@H]2O[C@H](COP(=O)([O-])OP(=O)(O)OC[C@H]3O[C@@H](n4cnc5c(N)ncnc54)[C@H](O)[C@@H]3O)[C@@H](O)[C@H]2O)c1 [NAD^+, nicotinamide adenine dinucleotide oxidized form]
[1]; read-out: Km for NAD^+ in H3 deacetylation
  Km: 120 µM
[2]
  rate of peptide-independent solvolysis vs deacetylation: exceeds the deacetylation rate for H3
[2]; pH 7.3
  kcat, NAD^+ hydrolysis, no peptide: 1.2 ± 0.2 10^−3 s^−1
[3]
  stereochemistry of Pf-Sir2 methanolysis product: inverted stereochemistry; also recorded: only α-1-O-methyl-ADPR as a product (no β)
[3]; pH 8.5
  k0 (α-MeO-ADPR): 0.00027 s⁻¹
  ksolvolysis (combined ADPR and 1-O-methyl-ADPR): 0.00138 s⁻¹

## NC(=S)c1cccnc1 [thionicotinamide]
[4]
  base-exchange Km, times higher than nicotinamide: 8 times
  base-exchange, times slower than nicotinamide: approximately 4 times

## O-acetyl-adenosine diphosphoribose [AADPR]
[5]
  decomposition of AADPR on adding Pf-Sir2 to SIRT1 reaction mixture: not decomposed
[5]; relative to a control
  decomposition of purified AADPR in presence of Pf-Sir2: not decomposed faster relative to a control

## p300: human di-acetylated p300 sequence corresponding to amino acid positions 1034–1053 (ATQSSPAPGQSKKKIFKPEE; also: di-acetylated, places not given here; UniProt Q09472 1034-1053, looked up, fragment)
[1]
  deacetylation co-product: 2′- and 3′- O-acetyl-ADP-ribose (AADPR)
[2]
  stimulation of NAD^+ hydrolysis by peptide: best hydrolysis stimulating substrate
